Measured values taken from ChEMBL document CHEMBL1201862, “PubChem BioAssay data set” (2004).
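Values below derive from 48-hour exposures of cells grown in 96-well plates, with endpoints linearly interpolated between the two concentrations bracketing the appropriate inhibition level. At the GI50, growth is halved.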 Calls of active or inactive are those of the source. No stated cut-off is given here; in the data, active = GI50 up to about 1.1 µM and inactive = higher.

Legend:
Assay in all cases: NCI-60 cell line screen, 48 h
786-0 = test system: 786-0
A498 = test system: A498
A549 = test system: A549
ACHN = test system: ACHN
BT-549 = test system: BT-549
CAKI-1 = test system: CAKI-1
CCRF-CEM = test system: CCRF-CEM
COLO 205 = test system: COLO 205
DU-145 = test system: DU-145
EKVX = test system: EKVX
HCC 2998 = test system: HCC 2998
HCT-116 = test system: HCT-116
HCT-15 = test system: HCT-15
HL-60 = test system: HL-60
HOP-62 = test system: HOP-62
HOP-92 = test system: HOP-92
HT-29 = test system: HT-29
Hs-578T = test system: Hs-578T
IGROV-1 = test system: IGROV-1
K562 = test system: K562
KM12 = test system: KM12
LOX IMVI = test system: LOX IMVI
M14 = test system: M14
MCF7 = test system: MCF7
MDA-MB-231 = test system: MDA-MB-231
MDA-MB-435 = test system: MDA-MB-435
MDA-N = test system: MDA-N
MOLT-4 = test system: MOLT-4
Malme-3M = test system: Malme-3M
NCI-H226 = test system: NCI-H226
NCI-H23 = test system: NCI-H23
NCI-H460 = test system: NCI-H460
NCI-H522 = test system: NCI-H522
NCI/ADR-RES = test system: NCI/ADR-RES
OVCAR-3 = test system: OVCAR-3
OVCAR-4 = test system: OVCAR-4
OVCAR-5 = test system: OVCAR-5
OVCAR-8 = test system: OVCAR-8
PC-3 = test system: PC-3
RPMI-8226 = test system: RPMI-8226
RXF 393 = test system: RXF 393
SF-268 = test system: SF-268
SF-295 = test system: SF-295
SF-539 = test system: SF-539
SK-MEL-28 = test system: SK-MEL-28
SK-MEL-2 = test system: SK-MEL-2
SK-MEL-5 = test system: SK-MEL-5
SK-OV-3 = test system: SK-OV-3
SN12C = test system: SN12C
SNB-19 = test system: SNB-19
SNB-75 = test system: SNB-75
SR = test system: SR
SW-620 = test system: SW-620
T47D = test system: T47D
TK-10 = test system: TK-10
U-251 = test system: U-251
UACC-257 = test system: UACC-257
UACC-62 = test system: UACC-62
UO-31 = test system: UO-31
DMS-273 = test system: DMS-273
M19-MEL = test system: M19-MEL
SNB-78 = test system: SNB-78

O=c1ccc2cc(O)c(O)cc2o1 [ESCULETIN]
GI50 (786-0): > 100 µM (inactive)
GI50 (A498): > 100 µM (inactive)
GI50 (A549): > 100 µM (inactive)
GI50 (ACHN): > 100 µM (inactive)
GI50 (BT-549): > 100 µM (inactive)
GI50 (CAKI-1): > 100 µM (inactive)
GI50 (CCRF-CEM): > 100 µM (inactive)
GI50 (COLO 205): > 100 µM (inactive)
GI50 (DU-145): > 100 µM (inactive)
GI50 (EKVX): > 100 µM (inactive)
GI50 (HCC 2998): > 100 µM (inactive)
GI50 (HCT-116): > 100 µM (inactive)
GI50 (HCT-15): > 100 µM
GI50 (HL-60): > 100 µM (inactive)
GI50 (HOP-62): > 100 µM (inactive)
GI50 (HOP-92): > 100 µM (inactive)
GI50 (HT-29): > 100 µM (inactive)
GI50 (Hs-578T): > 100 µM (inactive)
GI50 (IGROV-1): > 100 µM (inactive)
GI50 (K562): > 100 µM (inactive)
GI50 (KM12): > 100 µM (inactive)
GI50 (LOX IMVI): > 100 µM (inactive)
GI50 (M14): > 100 µM (inactive)
GI50 (MCF7): > 100 µM (inactive)
GI50 (MDA-MB-231): > 100 µM (inactive)
GI50 (MDA-MB-435): > 100 µM (inactive)
GI50 (MDA-N): > 100 µM (inactive)
GI50 (MOLT-4): > 100 µM (inactive)
GI50 (Malme-3M): > 100 µM (inactive)
GI50 (NCI-H226): > 100 µM (inactive)
GI50 (NCI-H23): > 100 µM (inactive)
GI50 (NCI-H460): > 100 µM (inactive)
GI50 (NCI-H522): > 100 µM (inactive)
GI50 (NCI/ADR-RES): > 100 µM (inactive)
GI50 (OVCAR-3): > 100 µM (inactive)
GI50 (OVCAR-4): 97.3 µM (inactive)
GI50 (OVCAR-5): > 100 µM (inactive)
GI50 (OVCAR-8): > 100 µM (inactive)
GI50 (PC-3): > 92.9 µM (inactive)
GI50 (RPMI-8226): > 100 µM (inactive)
GI50 (RXF 393): > 100 µM (inactive)
GI50 (SF-268): > 100 µM (inactive)
GI50 (SF-295): > 100 µM (inactive)
GI50 (SF-539): > 100 µM (inactive)
GI50 (SK-MEL-28): > 100 µM (inactive)
GI50 (SK-MEL-2): > 100 µM (inactive)
GI50 (SK-MEL-5): > 100 µM (inactive)
GI50 (SK-OV-3): > 100 µM (inactive)
GI50 (SN12C): > 100 µM (inactive)
GI50 (SNB-19): > 100 µM (inactive)
GI50 (SNB-75): > 100 µM (inactive)
GI50 (SR): > 100 µM (inactive)
GI50 (SW-620): > 100 µM (inactive)
GI50 (T47D): > 41.8 µM (inactive)
GI50 (TK-10): > 100 µM (inactive)
GI50 (U-251): > 100 µM (inactive)
GI50 (UACC-257): > 100 µM (inactive)
GI50 (UACC-62): > 100 µM (inactive)
GI50 (UO-31): > 100 µM (inactive)

COC1=C(OC)C(O)(c2ccccc2)C1=O (stereo not given)
GI50 (A498): > 100 µM (inactive)
GI50 (A549): > 100 µM (inactive)
GI50 (ACHN): > 100 µM (inactive)
GI50 (CCRF-CEM): > 100 µM (inactive)
GI50 (DMS-273): > 100 µM (inactive)
GI50 (EKVX): > 100 µM (inactive)
GI50 (HL-60): > 100 µM (inactive)
GI50 (HOP-62): > 100 µM (inactive)
GI50 (HOP-92): > 100 µM (inactive)
GI50 (HT-29): > 100 µM (inactive)
GI50 (IGROV-1): > 100 µM (inactive)
GI50 (KM12): > 100 µM (inactive)
GI50 (M14): > 100 µM (inactive)
GI50 (M19-MEL): > 100 µM (inactive)
GI50 (MOLT-4): > 100 µM (inactive)
GI50 (NCI-H23): > 100 µM (inactive)
GI50 (NCI-H460): > 100 µM (inactive)
GI50 (NCI-H522): > 100 µM (inactive)
GI50 (OVCAR-5): > 100 µM (inactive)
GI50 (OVCAR-8): > 100 µM (inactive)
GI50 (RXF 393): > 100 µM (inactive)
GI50 (SF-268): > 100 µM (inactive)
GI50 (SF-295): > 100 µM (inactive)
GI50 (SK-MEL-28): > 100 µM (inactive)
GI50 (SK-OV-3): > 100 µM (inactive)
GI50 (SNB-19): > 100 µM (inactive)
GI50 (SNB-78): > 100 µM (inactive)
GI50 (SR): > 100 µM (inactive)
GI50 (TK-10): 22.2 µM (inactive)
GI50 (U-251): > 100 µM (inactive)
GI50 (UACC-257): > 100 µM (inactive)
GI50 (UO-31): > 100 µM (inactive)

COC(=O)c1ccccc1CC1Cc2cc3c(cc2C1=O)CCC3 (stereo not given)
GI50 (786-0): 16.6 µM (inactive)
GI50 (A498): 11.7 µM (inactive)
GI50 (A549): 20.3 µM (inactive)
GI50 (ACHN): 27.7 µM (inactive)
GI50 (BT-549): 10.8 µM (inactive)
GI50 (CAKI-1): 11.1 µM (inactive)
GI50 (CCRF-CEM): 6.53 µM (inactive)
GI50 (COLO 205): 8.59 µM (inactive)
GI50 (DU-145): 27.7 µM (inactive)
GI50 (EKVX): 25.8 µM (inactive)
GI50 (HCC 2998): > 41.1 µM (inactive)
GI50 (HCT-116): 5.32 µM (inactive)
GI50 (HCT-15): 4.02 µM
GI50 (HL-60): 3.83 µM (inactive)
GI50 (HOP-62): 17.1 µM (inactive)
GI50 (HOP-92): 13.7 µM (inactive)
GI50 (HT-29): 8.71 µM (inactive)
GI50 (Hs-578T): 19.6 µM (inactive)
GI50 (IGROV-1): 16 µM (inactive)
GI50 (K562): 3.69 µM (inactive)
GI50 (KM12): 8.67 µM (inactive)
GI50 (LOX IMVI): 7.31 µM (inactive)
GI50 (M14): 10.4 µM (inactive)
GI50 (MCF7): 14.6 µM (inactive)
GI50 (MDA-MB-231): 8.85 µM (inactive)
GI50 (MDA-MB-435): 1.95 µM (inactive)
GI50 (MDA-N): 1.93 µM (inactive)
GI50 (MOLT-4): 5.11 µM (inactive)
GI50 (Malme-3M): 7.14 µM (inactive)
GI50 (NCI-H226): 18.5 µM (inactive)
GI50 (NCI-H23): 19.3 µM (inactive)
GI50 (NCI-H460): 29.7 µM (inactive)
GI50 (NCI-H522): 5.28 µM (inactive)
GI50 (NCI/ADR-RES): 3.05 µM (inactive)
GI50 (OVCAR-3): 13.1 µM (inactive)
GI50 (OVCAR-4): 19.2 µM (inactive)
GI50 (OVCAR-5): 26.5 µM (inactive)
GI50 (OVCAR-8): 20.1 µM (inactive)
GI50 (PC-3): 11.1 µM (inactive)
GI50 (RPMI-8226): 10.5 µM (inactive)
GI50 (RXF 393): 2.56 µM (inactive)
GI50 (SF-268): 29.6 µM (inactive)
GI50 (SF-295): 14.6 µM (inactive)
GI50 (SF-539): 16.8 µM (inactive)
GI50 (SK-MEL-28): 17.8 µM (inactive)
GI50 (SK-MEL-2): 7.87 µM (inactive)
GI50 (SK-MEL-5): 7.83 µM (inactive)
GI50 (SK-OV-3): 18.5 µM (inactive)
GI50 (SN12C): 11.5 µM (inactive)
GI50 (SNB-19): 21.4 µM (inactive)
GI50 (SNB-75): 11.4 µM (inactive)
GI50 (SR): 4.06 µM (inactive)
GI50 (SW-620): 3.82 µM (inactive)
GI50 (T47D): 16 µM (inactive)
GI50 (TK-10): 16.5 µM (inactive)
GI50 (U-251): 10.4 µM (inactive)
GI50 (UACC-257): 19.3 µM (inactive)
GI50 (UACC-62): 9.77 µM (inactive)
GI50 (UO-31): 22.3 µM (inactive)
